# Source: patent publication US10941216B2, “Engineered polypeptide conjugates and methods for making thereof using transglutaminase” (PFIZER INC., priority 2010, dated 2021)
# Read-outs that look alike come from different tables or passages of the source. Numbered stars: 1 amine (or outer) side, 2 acyl side, 3 side chain; on linkers, the order of the positions; unused ones are H or OH. Square brackets hold non-standard residues; d marks the D form. Peptide text beside a SMILES is read from it. * marks the point of attachment. ξ: configuration not given here. Dolaproine = CO[C@@H]([C@@H]1CCCN1)[C@@H](C)C(=O)O; X1 = COC([C@@H](C)C(=O)[*:2])[C@@H]1CCCN1[*:1]; Dil = CC[C@H](C)[C@H](NC)[C@@H](CC(=O)O)OC; PABC = O=C(OCc1ccc(N[*:1])cc1)[*:2]; Doe = c1ccc(C[C@H](N*)c2nccs2)cc1; X2 = C[C@@H](N*)[C@@H](O)c1ccccc1; Cit = NC(=O)NCCC[C@H](N)C(=O)O; NMeV = CN[C@H](C(=O)O)C(C)C; PEG3 = NCCOCCOCCOCCC(=O)O; ξK = NCCCCC(N)C(=O)O; Ahx = NCCCCCC(=O)O; βAla = NCCC(=O)O
# Assays:
# Experiment in all cases: In vitro cytotoxicity, CellTiter-Glo
# Format in all cases: cell-based
# [1] = system: BxPC3 cells; settings: Homo sapiens, BXPC-3, 96 h, read-out: BxPC3 Antibody IC50 (nM)
# Procedure: (§1) In vitro cytotoxicity assays were carried out using various antibodies, payloads (i.e., agent moieties), and amine donor units. For mAb2 (a chimeric IgG1 antibody), target expressing (A431, OVCAR3, BxPC3 and HT-29) or non-expressing (SW620) cells were seeded on white walled clear bottom plates at 2000 cells/well for 24 hours before treatment. […] Cell viability was determined by CellTiter-Glo® Luminescent Cell Viability Assay 96 (Promega, Madison Wis.) 96 hours after treatment. […] IC50 was calculated by Prism software.
# [2] = system: SW620 cells; settings: Homo sapiens
# Procedure: as §1
# [3] = system: HT-29 cells; settings: Homo sapiens; HT-29, target expressing, 96 hours; read-out: HT-29 Antibody IC50
# Procedure: as §1
# [4] = system: A431 cells; settings: Homo sapiens
# Procedure: as §1
# [5] = SW-620, SW620, target non-expressing, 96 hours, read-out: SW620 Antibody IC50
# [6] = A-431, A431, target expressing, 96 hours, read-out: A431 Antibody IC50
# [7] = A-431, 96 h, read-out: A431 Antibody IC50 (nM)
Structure (SMILES),IC50 [1] [nM],"IC50 [2, 5] [nM]","IC50 ([2]; SW-620, 96 h, read-out: SW620 Antibody IC50 (nM)) [nM]",IC50 [3] [nM],"IC50 [4, 6] [nM]","IC50 [4, 7] [nM]"
"CC[C@H](C)[C@@H]([C@@H](CC(=O)N1CCC[C@H]1C(OC)[C@@H](C)C(=O)N[C@@H](Cc1ccccc1)C(=O)O)OC)N(C)C(=O)[C@@H](NC(=O)[C@H](C(C)C)N(C)C(=O)CCCCCN)C(C)C (stereo partly drawn) [Sample 23, Aminocaproyl-MMAF] (H-[Ahx][NMeV]V[Dil][X1]F-OH)",0.28,0.01,,,,
"CC[C@H](C)[C@@H]([C@@H](CC(=O)N1CCC[C@H]1[C@H](OC)[C@@H](C)C(=O)N[C@@H](Cc1ccccc1)C(=O)O)OC)N(C)C(=O)[C@@H](NC(=O)[C@H](C(C)C)N(C)C(=O)OCc1ccc(NC(=O)[C@H](CCCNC(N)=O)NC(=O)[C@@H](NC(=O)CCCCCN)C(C)C)cc1)C(C)C [Sample 24, VC-PABC-MMAF] (H-[Ahx]V[Cit][PABC][NMeV]V[Dil][Dolaproine]F-OH)",427,,483,,,
"CO[C@H]1/C=C\C=C(/C)C(=O)NC2=CC(=O)C(NCCCCN)=C(C[C@@H](C)C[C@H](OC)[C@H](O)[C@@H](C)/C=C(\C)[C@@H]1OC(N)=O)C2=O [Sample 25, Putrescinyl-Geldanamycin]",,> 1000,,318,> 1000,
"CC[C@H](C)[C@@H]([C@@H](CC(=O)N1CCC[C@H]1[C@H](OC)[C@@H](C)C(=O)N[C@@H](Cc1ccccc1)c1nccs1)OC)N(C)C(=O)[C@@H](NC(=O)[C@H](C(C)C)N(C)C(=O)OCc1ccc(NC(=O)[C@H](CCCNC(N)=O)NC(=O)[C@@H](NC(=O)[C@H](CCCCN)NC(C)=O)C(C)C)cc1)C(C)C [Sample 27, AcLys-VC-PABC-MMAD] (Ac-KV[Cit][PABC][NMeV]V[Dil][Dolaproine]-Doe)",,,,0.189,,0.003
"CC[C@H](C)[C@@H]([C@@H](CC(=O)N1CCC[C@H]1[C@H](OC)[C@@H](C)C(=O)N[C@@H](Cc1ccccc1)c1nccs1)OC)N(C)C(=O)[C@@H](NC(=O)[C@H](C(C)C)N(C)C(=O)CCCCCN)C(C)C [Sample 28, Aminocaproyl-MMAD] (H-[Ahx][NMeV]V[Dil][Dolaproine]-Doe)",,,,97.5,146,
"CC[C@H](C)[C@@H]([C@@H](CC(=O)N1CCC[C@H]1[C@H](OC)[C@@H](C)C(=O)N[C@@H](Cc1ccccc1)c1nccs1)OC)N(C)C(=O)[C@@H](NC(=O)[C@H](C(C)C)N(C)C(=O)CCNC(=O)C(CCCCN)NC(C)=O)C(C)C (stereo partly drawn) [Sample 30, AcLys-β-Ala-MMAD] (Ac-[ξK][βAla][NMeV]V[Dil][Dolaproine]-Doe)",,,,59.5,98.5,
"CC[C@H](C)[C@@H]([C@@H](CC(=O)N1CCC[C@H]1[C@H](OC)[C@@H](C)C(=O)N[C@H](C)[C@@H](O)c1ccccc1)OC)N(C)C(=O)[C@@H](NC(=O)[C@H](C(C)C)N(C)C(=O)CCOCCOCCOCCN)C(C)C [Sample 33, Amino-PEG3-C2-MMAE] (H-[PEG3][NMeV]V[Dil][Dolaproine]-X2)",,,,211,,258
